Data from patent US10336761B2, “TGFβ receptor antagonist” (BRISTOL-MYERS SQUIBB COMPANY, priority 2015, dated 2019).

Each compound was assayed against HIS-TGFβR1 T204D (Homo sapiens (Human), UniProt P36897, T204D) (assay: HTRF probe-displacement assay, HIS-TGFβR1 T204D). Conditions: 1 hour at room temperature.
Type: binding

HIS-TGFβR1 T204D, sequence (P36897 34-503 T204D): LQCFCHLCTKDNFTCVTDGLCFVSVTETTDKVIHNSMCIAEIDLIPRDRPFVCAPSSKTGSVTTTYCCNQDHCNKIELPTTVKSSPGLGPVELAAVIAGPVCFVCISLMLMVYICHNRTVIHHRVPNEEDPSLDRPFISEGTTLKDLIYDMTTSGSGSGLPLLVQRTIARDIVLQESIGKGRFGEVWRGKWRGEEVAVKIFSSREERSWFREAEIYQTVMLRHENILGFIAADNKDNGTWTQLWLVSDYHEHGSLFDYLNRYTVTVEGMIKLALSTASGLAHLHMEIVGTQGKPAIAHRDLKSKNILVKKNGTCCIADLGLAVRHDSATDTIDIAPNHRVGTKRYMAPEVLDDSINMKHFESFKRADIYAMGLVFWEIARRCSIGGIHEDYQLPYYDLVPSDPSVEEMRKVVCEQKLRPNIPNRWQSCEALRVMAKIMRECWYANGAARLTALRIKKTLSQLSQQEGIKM

SMILES | IC50
COC(=O)Nc1cc2c(Nc3ccncc3F)nc(-c3cccc(OC)n3)nn2c1 [Example 73, Methyl N-{4-[(3-fluoropyridin-4-yl)amino]-2-(6-methoxypyridin-2-yl)pyrrolo[2,1-f][1,2,4]triazin-6-yl}carbamate] | 74 nM
COc1cccc(-c2nc(Nc3ccncc3F)c3cc(CNC[C@@H](F)C(C)(C)O)cn3n2)n1 [Example 208, (3R)-3-fluoro-4-[({4-[(3-fluoropyridin-4-yl)amino]-2-(6-methoxypyridin-2-yl)pyrrolo[2,1-f][1,2,4]triazin-6-yl}methyl)amino]-2-methylbutan-2-ol] | 880 nM
CC(=O)Nc1cc(Nc2nc(-c3ccccn3)nn3ccc(CN4CCOCC4)c23)ccn1 [Example 293, N-(4-{[5-(morpholin-4-ylmethyl)-2-(pyridin-2-yl)pyrrolo[2,1-f][1,2,4]triazin-4-yl]amino}pyridin-2-yl)acetamide] | 0.25 nM
Cc1cccc(-c2nc(Nc3ccncc3C(=O)NCCN3CCCCC3)c3cccn3n2)n1 [Example 155, 4-{[2-(6-methylpyridin-2-yl)pyrrolo[2,1-f][1,2,4]triazin-4-yl]amino}-N-[2-(piperidin-1-yl)ethyl]pyridine-3-carboxamide] | 6.8 nM
Fc1cnccc1Nc1nc(-c2cccc(C(F)(F)F)n2)nn2ccc(CN3CCC(F)(F)CC3)c12 [Example 123, N-{5-[(4,4-difluoropiperidin-1-yl)methyl]-2-[6-(trifluoromethyl)pyridin-2-yl]pyrrolo[2,1-f][1,2,4]triazin-4-yl}-3-fluoropyridin-4-amine] | 13 nM
Fc1cnccc1Nc1nc(-c2ccccn2)nn2ccc(CNCCCn3ccnc3)c12 [Example 281, 3-fluoro-N-[5-({[3-(1H-imidazol-1-yl)propyl]amino}methyl)-2-(pyridin-2-yl)pyrrolo[2,1-f][1,2,4]triazin-4-yl]pyridin-4-amine] | 1.6 nM
O=C(CC(F)(F)F)Nc1cc(Nc2nc(-c3cccc(C(F)(F)F)n3)nn3cccc23)ccn1 [Example 344, 3,3,3-trifluoro-N-[4-({2-[6-(trifluoromethyl)pyridin-2-yl]pyrrolo[2,1-f][1,2,4]triazin-4-yl}amino)pyridin-2-yl]propanamide] | 5.1 nM
CC(=O)Nc1cc(Nc2nc(-c3cccc(C(F)(F)F)n3)nn3ccc(CNCC(C)(C)O)c23)ccn1 [Example 254, N-{4-[(5-{[(2-hydroxy-2-methylpropyl)amino]methyl}-2-[6-(trifluoromethyl)pyridin-2-yl]pyrrolo[2,1-f][1,2,4]triazin-4-yl)amino]pyridin-2-yl}acetamide] | 2 nM
COc1cccc(-c2nc(Nc3ccncc3F)c3cc(NS(C)(=O)=O)cn3n2)n1 [Example 22, N-{4-[(3-fluoropyridin-4-yl)amino]-2-(6-methoxypyridin-2-yl)pyrrolo[2,1-f][1,2,4]triazin-6-yl}methanesulfonamide] | 56 nM
Cc1nc(-c2nc(Nc3ccncc3C(=O)NCCN3CCS(=O)(=O)CC3)c3cccn3n2)ccc1F [Example 35, N-[2-(1,1-dioxo-1,4-thiomorpholin-4-yl)ethyl]-4-{[2-(5-fluoro-6-methylpyridin-2-yl)pyrrolo[2,1-f][1,2,4]triazin-4-yl]amino}pyridine-3-carboxamide] | 22 nM
FC(F)(F)c1cccc(-c2nc(Nc3ccncc3OCCCN3CCOCC3)c3cccn3n2)n1 [Example 75] | 210 nM
N#CCCC(=O)Nc1cc(Nc2nc(-c3cccc(C(F)(F)F)n3)nn3cccc23)ccn1 [Example 338, 3-cyano-N-[4-({2-[6-(trifluoromethyl)pyridin-2-yl]pyrrolo[2,1-f][1,2,4]triazin-4-yl}amino)pyridin-2-yl]propanamide] | 0.79 nM
Fc1cnccc1Nc1nc(-c2cscn2)nn2cccc12 [Example 262, 3-fluoro-N-[2-(1,3-thiazol-4-yl)pyrrolo[2,1-f][1,2,4]triazin-4-yl]pyridin-4-amine] | 8.2 nM
OC12C[C@H]3C[C@@H](C1)CC(NCc1ccn4nc(-c5ccccn5)nc(Nc5ccncc5F)c14)(C3)C2 [Example 237, (5R,7S)-3-[({4-[(3-fluoropyridin-4-yl)amino]-2-(pyridin-2-yl)pyrrolo[2,1-f][1,2,4]triazin-5-yl}methyl)amino]adamantan-1-ol] | 1.2 nM
COc1cccc(-c2nc(Nc3ccncc3F)c3c(C(O)CN4CCC(F)(F)CC4)ccn3n2)n1 (stereo not shown) [Example 129, 2-(4,4-difluoropiperidin-1-yl)-1-{4-[(3-fluoropyridin-4-yl)amino]-2-(6-methoxypyridin-2-yl)pyrrolo[2,1-f][1,2,4]triazin-5-yl}ethan-1-ol] | 38 nM
Cc1cccc(-c2nc(Nc3ccncc3C(=O)NC3CCOCC3)c3cccn3n2)n1 [Example 164, 4-{[2-(6-methylpyridin-2-yl)pyrrolo[2,1-f][1,2,4]triazin-4-yl]amino}-N-(oxan-4-yl)pyridine-3-carboxamide] | 75 nM
CC(C)(C)OC(=O)CNC(=O)c1cnccc1Nc1nc(-c2cccc(C(F)F)n2)nn2cccc12 [Example 196, tert-butyl 2-{[4-({2-[6-(difluoromethyl)pyridin-2-yl]pyrrolo[2,1-f][1,2,4]triazin-4-yl}amino)pyridin-3-yl]formamido}acetate] | 230 nM

SMILES | IC50
Fc1cnccc1Nc1nc(-c2ncccc2F)nn2cccc12 [Example 260, 3-fluoro-N-[2-(3-fluoropyridin-2-yl)pyrrolo[2,1-f][1,2,4]triazin-4-yl]pyridin-4-amine] | 3.2 nM
Cc1cccc(-c2nc(Nc3ccncc3F)c3c(CN4CC[C@H](O)C4)ccn3n2)n1 [Example 252, (3S)-1-({4-[(3-fluoropyridin-4-yl)amino]-2-(6-methylpyridin-2-yl)pyrrolo[2,1-f][1,2,4]triazin-5-yl}methyl)pyrrolidin-3-ol] | 0.49 nM
CCC[C@@H](CO)NCc1ccn2nc(-c3ccccn3)nc(Nc3ccncc3F)c12 [Example 273, (2S)-2-[({4-[(3-fluoropyridin-4-yl)amino]-2-(pyridin-2-yl)pyrrolo[2,1-f][1,2,4]triazin-5-yl}methyl)amino]pentan-1-ol] | 1.6 nM
O=C(NCCCN1CCS(=O)(=O)CC1)c1cnccc1Nc1nc(-c2cccc(C(F)F)n2)nn2cccc12 [Example 168, 4-({2-[6-(difluoromethyl)pyridin-2-yl]pyrrolo[2,1-f][1,2,4]triazin-4-yl}amino)-N-[3-(1,1-dioxo-1,4-thiomorpholin-4-yl)propyl]pyridine-3-carboxamide] | 8.6 nM
Fc1cnccc1Nc1nc(-c2ccnc(C(F)(F)F)n2)nn2cccc12 [Example 100, 3-fluoro-N-{2-[2-(trifluoromethyl)pyrimidin-4-yl]pyrrolo[2,1-f][1,2,4]triazin-4-yl}pyridin-4-amine] | 15 nM
Cc1nc(-c2nc(Nc3ccncc3Cl)c3cccn3n2)ccc1F [Example 3, 3-chloro-N-[2-(5-fluoro-6-methylpyridin-2-yl)pyrrolo[2,1-f][1,2,4]triazin-4-yl]pyridin-4-amine] | 0.82 nM
Cc1cncc(-c2nc(Nc3ccncc3Cl)c3cccn3n2)n1 [Example 6, 3-chloro-N-[2-(6-methylpyrazin-2-yl)pyrrolo[2,1-f][1,2,4]triazin-4-yl]pyridin-4-amine] | 68 nM
O=C(NCc1nc[nH]n1)c1cnccc1Nc1nc(-c2cccc(C(F)F)n2)nn2cccc12 [Example 191, 4-({2-[6-(difluoromethyl)pyridin-2-yl]pyrrolo[2,1-f][1,2,4]triazin-4-yl}amino)-N-(1H-1,2,4-triazol-3-ylmethyl)pyridine-3-carboxamide] | 64 nM
COc1cccc(-c2nc(Nc3ccncc3C(N)=O)c3cccn3n2)n1 [Example 98, 4-{[2-(6-methoxypyridin-2-yl)pyrrolo[2,1-f][1,2,4]triazin-4-yl]amino}pyridine-3-carboxamide] | 9.1 nM
COc1cccc(-c2nc(Nc3ccncc3F)c3c(CNCC(C)(C)O)ccn3n2)n1 [Example 118, 1-[({4-[(3-fluoropyridin-4-yl)amino]-2-(6-methoxypyridin-2-yl)pyrrolo[2,1-f][1,2,4]triazin-5-yl}methyl)amino]-2-methylpropan-2-ol] | 9.7 nM
O=C(N[C@@H]1CCCC[C@H]1O)c1cnccc1Nc1nc(-c2cccc(C(F)F)n2)nn2cccc12 [Example 180, 4-({2-[6-(difluoromethyl)pyridin-2-yl]pyrrolo[2,1-f][1,2,4]triazin-4-yl}amino)-N-[(1R,2R)-2-hydroxycyclohexyl]pyridine-3-carboxamide] | 380 nM
Cc1cc(Nc2nc(-c3cccc(C(F)(F)F)n3)nn3cccc23)ccn1 [Example 257, 2-methyl-N-{2-[6-(trifluoromethyl)pyridin-2-yl]pyrrolo[2,1-f][1,2,4]triazin-4-yl}pyridin-4-amine] | 660 nM
Cc1cccc(-c2nc(Nc3ccncc3)c3cc(C(=O)NCCCN4CCCC4)cn3n2)n1 [Example 50, 2-(6-methylpyridin-2-yl)-4-[(pyridin-4-yl)amino]-N-[3-(pyrrolidin-1-yl)propyl]pyrrolo[2,1-f][1,2,4]triazine-6-carboxamide] | 76 nM
Cc1csc(-c2nc(Nc3ccncc3)c3cccn3n2)n1 [Example 88, N-[2-(4-methyl-1,3-thiazol-2-yl)pyrrolo[2,1-f][1,2,4]triazin-4-yl]pyridin-4-amine] | 1.5 nM
O=C(NC1CCC1)c1cnccc1Nc1nc(-c2cccc(C(F)F)n2)nn2cccc12 [Example 193, N-cyclobutyl-4-({2-[6-(difluoromethyl)pyridin-2-yl]pyrrolo[2,1-f][1,2,4]triazin-4-yl}amino)pyridine-3-carboxamide] | 23 nM
O=C(Nc1cc(Nc2nc(-c3cccc(C(F)(F)F)n3)nn3cccc23)ccn1)[C@@H]1CCCN1 [Example 326, (2S)—N-[4-({2-[6-(trifluoromethyl)pyridin-2-yl]pyrrolo[2,1-f][1,2,4]triazin-4-yl}amino)pyridin-2-yl]pyrrolidine-2-carboxamide] | 88 nM
Fc1cnccc1Nc1nc(-c2ccccn2)nn2ccc(CN3CCN(c4ncccn4)CC3)c12 [Example 276, 3-fluoro-N-[2-(pyridin-2-yl)-5-{[4-(pyrimidin-2-yl)piperazin-1-yl]methyl}pyrrolo[2,1-f][1,2,4]triazin-4-yl]pyridin-4-amine] | 1.6 nM
